Reference: PMC4188605, “Biochemical and Pharmacological Characterization of the Human Lymphocyte Antigen B-Associated Transcript 5 (BAT5/ABHD16A)” (PLoS ONE, 2014)
Entries after “also recorded” stand apart in the source; their conditions may differ.

Experiments:
hABHD6 = target: T1, hABHD6 (Homo sapiens, UniProt Q9BV23); test: Hydrolase activity assay, hABHD6-HEK lysates; type: biochemical; conditions: hABHD6-HEK lysates; read-out: IC50
T1 construct: expressed in transfected cells; host or cells: HEK293
T1 sequence (Q9BV23 1-337): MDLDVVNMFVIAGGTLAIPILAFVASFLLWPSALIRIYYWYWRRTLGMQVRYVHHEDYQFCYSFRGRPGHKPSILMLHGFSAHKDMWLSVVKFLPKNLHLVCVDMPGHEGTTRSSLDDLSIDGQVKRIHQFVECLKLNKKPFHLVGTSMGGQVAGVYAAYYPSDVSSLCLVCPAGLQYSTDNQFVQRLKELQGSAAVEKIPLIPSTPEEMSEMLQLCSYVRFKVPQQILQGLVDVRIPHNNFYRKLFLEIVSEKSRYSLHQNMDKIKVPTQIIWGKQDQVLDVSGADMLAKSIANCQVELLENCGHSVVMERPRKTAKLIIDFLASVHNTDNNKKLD

BAT5 = target: T2, BAT5 (Mus musculus, UniProt Q9Z1Q2); test: Competitive ABPP, mouse brain membrane proteome: BAT5 band; conditions: tested concentration range 10^−8–10^−5 M
T2 sequence (Q9Z1Q2 1-558): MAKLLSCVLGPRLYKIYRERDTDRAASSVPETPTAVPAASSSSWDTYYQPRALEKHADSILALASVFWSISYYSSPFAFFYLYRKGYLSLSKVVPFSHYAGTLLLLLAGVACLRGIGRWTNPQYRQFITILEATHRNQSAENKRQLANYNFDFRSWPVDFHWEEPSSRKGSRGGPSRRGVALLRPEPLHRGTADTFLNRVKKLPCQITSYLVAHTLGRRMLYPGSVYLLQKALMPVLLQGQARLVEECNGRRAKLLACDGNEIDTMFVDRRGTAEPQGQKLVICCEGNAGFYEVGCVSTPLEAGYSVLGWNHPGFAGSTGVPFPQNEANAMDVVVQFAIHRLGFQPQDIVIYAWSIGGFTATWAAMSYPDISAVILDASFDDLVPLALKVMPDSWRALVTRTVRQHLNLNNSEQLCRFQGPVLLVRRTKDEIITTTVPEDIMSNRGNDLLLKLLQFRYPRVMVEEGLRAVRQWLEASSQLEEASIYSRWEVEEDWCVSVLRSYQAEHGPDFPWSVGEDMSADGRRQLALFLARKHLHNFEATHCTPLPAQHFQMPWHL

LYPLA1/2 = test: Competitive ABPP, mouse brain membrane proteome: LYPLA1/2 band; conditions: tested concentration range 10^−8–10^−5 M

IC50 (hABHD6): 52.5 nM
Structure (SMILES): CCCCCCCCCC[C@@H]1C(=O)O[C@H]1CCc1ccc(OC)c(OC)c1 [Palmostatin B, palmostatin B]
inhibition of probe binding to BAT5 (BAT5): dose-dependently inhibited probe binding; also recorded: dose-dependently inhibits probe labeling | inhibition of probe binding to LYPLA1/2 (LYPLA1/2): dose-dependently inhibited probe binding; also recorded: dose-dependently inhibits probe labeling
